Measurements reported in PubChem BioAssay AID330 (DTP/NCI, 2004).
Values joined by “and” are separate entries in the source; they are usually repeats but may differ in a detail not shown here. Equal entries are not always repeated. Inconclusive results and toxic doses are left out. Rule for the calls: active = survival T/C of 150% or more; inactive = T/C below 125% in these data.

System: P388 leukemia ip, CD2F1 mice, survival T/C
Test: NCI In Vivo Anticancer Drug Screen. Data for tumor model P388 Leukemia (intraperitoneal) in CD2F1 (CDF1) mice
Conditions: endpoint: median survival time, higher = longer survival
Summary of the method: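 Mice carrying the transplanted tumor received test compound or vehicle. Survival was recorded in each group, and the value is the treated-group measurement divided by that of the vehicle-treated control group.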

[1] = dose: 100.0 mg/kg/injection, schedule: Q01DX009 (ip), vehicle: saline with Tween-80
[2] = dose: 200.0 mg/kg/injection, schedule: Q01DX009 (ip), vehicle: saline with Tween-80
[3] = dose: 12.5 mg/kg/injection, schedule: Q01DX009 (ip), vehicle: saline
[4] = dose: 25.0 mg/kg/injection, schedule: Q01DX009 (ip), vehicle: saline with Tween-80
[5] = dose: 25.0 mg/kg/injection, schedule: Q01DX009 (ip), vehicle: saline
[6] = dose: 50.0 mg/kg/injection, schedule: Q01DX009 (ip), vehicle: saline with Tween-80
[7] = dose: 50.0 mg/kg/injection, schedule: Q01DX009 (ip), vehicle: saline
[8] = dose: 100.0 mg/kg/injection, schedule: Q01DX009 (ip), vehicle: saline
[9] = dose: 200.0 mg/kg/injection, schedule: Q01DX009 (ip), vehicle: saline
[10] = dose: 100.0 mg/kg/injection, schedule: Q01DX005 (ip), vehicle: saline with Tween-80
[11] = dose: 60.0 mg/kg/injection, schedule: Q01DX005 (ip), vehicle: saline with Tween-80
[12] = dose: 120.0 mg/kg/injection, schedule: Q01DX005 (ip), vehicle: saline with Tween-80
[13] = dose: 240.0 mg/kg/injection, schedule: Q01DX005 (ip), vehicle: saline with Tween-80

Measured: T/C

CCO/C(C)=C(/C(C)=O)C(=O)NC1CCCCC1
inactive: [1] 95 % of control | [2] 90 % of control | dose: 400.0 mg/kg/injection, schedule: Q01DX009 (ip), vehicle: saline with Tween-80 90 % of control

COc1ccc(CSC(=S)Nc2cccc(S(F)(F)(F)(F)F)c2)cc1
inactive: dose: 12.5 mg/kg/injection, schedule: Q01DX009 (ip), vehicle: saline with Tween-80 97 % of control | [3] 104 % of control | [4] 100 % of control | [5] 98 % of control | [6] 100 % of control | [7] 100 % of control and 119 % of control | [8] 116 % of control | [9] 118 % of control

C/C(=C\c1ccc(OCC(=O)O)c(Cl)c1Cl)[N+](=O)[O-]
inactive: dose: 12.5 mg/kg/injection, schedule: Q01DX001 (ip), vehicle: saline with Tween-80 100 % of control and 102 % of control | dose: 25.0 mg/kg/injection, schedule: Q01DX001 (ip), vehicle: saline with Tween-80 98 % of control and 100 % of control

C[As](C)SCC(NC(=O)CCC(N)C(=O)O)C(=O)NCC(=O)O (centres undefined)
inactive: [3] 104 % of control | [5] 109 % of control | [9] 97 % of control

CC1(C)OC2(c3ccccc3)N(c3ccc([N+](=O)[O-])cc3)N=C(c3ccccc3)N2c2ccccc21 (centres undefined)
inactive: dose: 100.0 mg/kg/injection, schedule: Q01DX001 (ip), vehicle: saline with Tween-80 89 % of control | dose: 200.0 mg/kg/injection, schedule: Q01DX001 (ip), vehicle: saline with Tween-80 89 % of control | dose: 400.0 mg/kg/injection, schedule: Q01DX001 (ip), vehicle: saline with Tween-80 88 % of control

Cc1cc(NCCCN(C)C)c2ccc3cc(NCCCN(C)C)c(C)nc3c2n1
inactive: [4] 96 % of control | [6] 104 % of control | [1] 102 % of control

CC1C2CCC3C(O)C2(CC(O)C2(O)C1CC(O)C2(C)C)CC3(C)O (centres undefined)
inactive: dose: 0.25 mg/kg/injection, schedule: Q01DX009 (ip), vehicle: Klucel (hydroxypropylcellulose) (HPC) 101 % of control | dose: 0.5 mg/kg/injection, schedule: Q01DX009 (ip), vehicle: Klucel (hydroxypropylcellulose) (HPC) 93 % of control | dose: 1.0 mg/kg/injection, schedule: Q01DX009 (ip), vehicle: Klucel (hydroxypropylcellulose) (HPC) 95 % of control

CCCCCCCCCCCCCCCCN1CCSCC1
inactive: [3] 91 % of control | [5] 97 % of control | [7] 98 % of control and 100 % of control | [8] 92 % of control

CS(C)(=O)=Nc1ccc(I)cc1
inactive: dose: 50.0 mg/kg/injection, schedule: Q04DX002 (ip), vehicle: Klucel (hydroxypropylcellulose) (HPC) 105 % of control | dose: 100.0 mg/kg/injection, schedule: Q04DX002 (ip), vehicle: Klucel (hydroxypropylcellulose) (HPC) 102 % of control and 104 % of control and 105 % of control | dose: 100.0 mg/kg/injection, schedule: Q04DX003 (ip), vehicle: saline 98 % of control | dose: 200.0 mg/kg/injection, schedule: Q04DX002 (ip), vehicle: Klucel (hydroxypropylcellulose) (HPC) 101 % of control and 113 % of control and 119 % of control | dose: 200.0 mg/kg/injection, schedule: Q04DX003 (ip), vehicle: saline 100 % of control | dose: 400.0 mg/kg/injection, schedule: Q04DX002 (ip), vehicle: Klucel (hydroxypropylcellulose) (HPC) 101 % of control and 105 % of control and 120 % of control | dose: 400.0 mg/kg/injection, schedule: Q04DX003 (ip), vehicle: saline 94 % of control

Cc1nc(=O)oc(NC(C)C)c1Cl
inactive: [4] 100 % of control and 107 % of control | [6] 106 % of control and 95 % of control | [7] 110 % of control | [1] 113 % of control and 97 % of control | [8] 103 % of control | [2] 99 % of control and 116 % of control

CCOC(=O)N1C(=O)C=CC1=O
inactive: dose: 18.75 mg/kg/injection, schedule: Q01DX009 (ip), vehicle: saline with Tween-80 106 % of control | dose: 37.5 mg/kg/injection, schedule: Q01DX009 (ip), vehicle: saline with Tween-80 104 % of control | dose: 75.0 mg/kg/injection, schedule: Q01DX009 (ip), vehicle: saline with Tween-80 105 % of control and 91 % of control | dose: 150.0 mg/kg/injection, schedule: Q01DX009 (ip), vehicle: saline with Tween-80 113 % of control

N#Cc1ccc[n+](Cc2ccccc2)c1
inactive: dose: 50.0 mg/kg/injection, schedule: Q01DX005 (ip), vehicle: saline with Tween-80 100 % of control | [10] 103 % of control | dose: 200.0 mg/kg/injection, schedule: Q01DX005 (ip), vehicle: saline with Tween-80 100 % of control

CCP(c1ccccc1)c1ccccc1
inactive: dose: 100.0 mg/kg/injection, schedule: Q01DX001 (ip), vehicle: Klucel (hydroxypropylcellulose) (HPC) 100 % of control | dose: 100.0 mg/kg/injection, schedule: Q01DX001 (ip), vehicle: saline 107 % of control | dose: 200.0 mg/kg/injection, schedule: Q01DX001 (ip), vehicle: Klucel (hydroxypropylcellulose) (HPC) 98 % of control | dose: 200.0 mg/kg/injection, schedule: Q01DX001 (ip), vehicle: saline 96 % of control | dose: 400.0 mg/kg/injection, schedule: Q01DX001 (ip), vehicle: Klucel (hydroxypropylcellulose) (HPC) 103 % of control | dose: 400.0 mg/kg/injection, schedule: Q01DX001 (ip), vehicle: saline 96 % of control | dose: 600.0 mg/kg/injection, schedule: Q01DX001 (ip), vehicle: Klucel (hydroxypropylcellulose) (HPC) 102 % of control

Cc1cc(N=Nc2ccc(NC(=O)c3ccc([N+](=O)[O-])cc3)cc2C)ccc1N=Nc1ccc2cc(S(=O)(=O)O)cc(S(=O)(=O)O)c2c1
inactive: dose: 12.5 mg/kg/injection, schedule: Q01DX005 (ip), vehicle: saline with Tween-80 102 % of control and 107 % of control and 109 % of control | dose: 25.0 mg/kg/injection, schedule: Q01DX005 (ip), vehicle: saline with Tween-80 109 % of control and 111 % of control and 120 % of control | [10] 111 % of control

N#C/C(=C/c1cc(Br)c2c(c1)OCO2)C(N)=O
inactive: dose: 100.0 mg/kg/injection, schedule: Q04DX002 (ip), vehicle: saline with Tween-80 100 % of control | dose: 200.0 mg/kg/injection, schedule: Q04DX002 (ip), vehicle: saline with Tween-80 98 % of control | dose: 400.0 mg/kg/injection, schedule: Q04DX002 (ip), vehicle: saline with Tween-80 97 % of control

CCOC(=O)C(CCc1ccccn1)C(C)=O (centres undefined)
inactive: [11] 94 % of control | [12] 98 % of control | [13] 98 % of control

CCn1c2ccccc2n2c(=O)c(Cl)c(C)c(C#N)c12
inactive: [11] 100 % of control | [12] 98 % of control | [13] 97 % of control

COC1NC(=S)N(Cc2ccccc2)C1(C)C (centres undefined)
inactive: dose: 50.0 mg/kg/injection, schedule: Q01DX009 (ip), vehicle: suspension in saline 102 % of control | dose: 100.0 mg/kg/injection, schedule: Q01DX009 (ip), vehicle: suspension in saline 97 % of control | dose: 200.0 mg/kg/injection, schedule: Q01DX009 (ip), vehicle: suspension in saline 93 % of control

CP1(=S)C=C(N2CCCC2)CC1 (centres undefined)
inactive: dose: 50.0 mg/kg/injection, schedule: Q01DX009 (ip), vehicle: Klucel (hydroxypropylcellulose) (HPC) 107 % of control and 109 % of control | dose: 100.0 mg/kg/injection, schedule: Q01DX009 (ip), vehicle: Klucel (hydroxypropylcellulose) (HPC) 99 % of control and 120 % of control | dose: 200.0 mg/kg/injection, schedule: Q01DX009 (ip), vehicle: Klucel (hydroxypropylcellulose) (HPC) 104 % of control and 95 % of control
